Experimental data published in the CheMixHub ionic liquid set.
± gives the uncertainty stated by the source.

Test: xn = mol fraction of the nth substance listed

CC[n+]1ccccc1.O=S(=O)([O-])C(F)(F)F + O
101 kPa
Conditions | viscosity [mPa·s]
293.15 K, x1 = 0.067 | 2.47 ± 0.15
298.15 K, x1 = 0.067 | 2.16 ± 0.13
298.15 K, x1 = 0.498 | 15.04 ± 0.91
313.15 K, x1 = 0.689 | 17.4 ± 1
343.15 K, x1 = 0.689 | 8.42 ± 0.51
353.15 K, x1 = 0.893 | 10.74 ± 0.65

CCCC[n+]1ccn(C)c1.[Br-] + NC(N)=O + O
298.15 K, 100 kPa
Conditions | viscosity [mPa·s]
x2 = 0, x3 = 0.9487 | 2.21 ± 0.11
x2 = 0.008492, x3 = 0.9402 | 2.29 ± 0.12
x2 = 0.01695, x3 = 0.9318 | 2.29 ± 0.12
x2 = 0.02496, x3 = 0.9237 | 2.28 ± 0.12
x2 = 0.02678, x3 = 0.9219 | 2.36 ± 0.12
x2 = 0.03322, x3 = 0.9155 | 2.36 ± 0.12
x2 = 0.04109, x3 = 0.9076 | 2.41 ± 0.12

CC(=O)[O-].CCCC[NH2+]CCO + CCCC[n+]1ccn(C)c1.COP(=O)([O-])OC
viscosity [mPa·s], 101 kPa
Conditions | x1 = 0.1014 | x1 = 0.172 | x1 = 0.2979 | x1 = 0.4067 | x1 = 0.4989 | x1 = 0.6316 | x1 = 0.7065 | x1 = 0.8011 | x1 = 0.8913 | x1 = 1
278.15 K | – | – | – | – | – | – | – | – | – | 6138 ± 420
283.15 K | 1725 ± 85 | 1555 ± 74 | 1328 ± 61 | 1208 ± 55 | 1161 ± 52 | 1288 ± 60 | 1457 ± 71 | 1793 ± 93 | 2360 ± 130 | 3634 ± 220
288.15 K | 1103 ± 48 | 997 ± 42 | 855 ± 35 | 781 ± 31 | 751 ± 30 | 825 ± 34 | 930 ± 40 | 1135 ± 52 | 1475 ± 73 | 2230 ± 120
293.15 K | 730 ± 28 | 662 ± 24 | 571 ± 20 | 522 ± 18 | 503 ± 17 | 548 ± 20 | 614 ± 23 | 741 ± 30 | 952 ± 42 | 1412 ± 70
298.15 K | 499 ± 17 | 454 ± 15 | 392 ± 12 | 360 ± 11 | 346 ± 10 | 375 ± 12 | 417 ± 14 | 499 ± 18 | 633 ± 25 | 921 ± 41
303.15 K | 351 ± 10 | 319.8 ± 8.9 | 277.3 ± 7.4 | 254.3 ± 6.7 | 244.8 ± 6.5 | 263.1 ± 7.3 | 290.6 ± 8.6 | 344 ± 11 | 431 ± 15 | 617 ± 24
308.15 K | 253.2 ± 6.3 | 231.1 ± 5.5 | 200.9 ± 4.6 | 184.2 ± 4.2 | 177.2 ± 4.1 | 189.1 ± 4.6 | 207.4 ± 5.4 | 243.2 ± 6.9 | 301 ± 9.3 | 423 ± 15
313.15 K | 186.8 ± 4 | 170.8 ± 3.5 | 148.7 ± 3 | 136.5 ± 2.8 | 131.1 ± 2.7 | 138.9 ± 3.1 | 151.3 ± 3.5 | 175.7 ± 4.4 | 214.8 ± 5.9 | 297 ± 9.3
318.15 K | 140.7 ± 2.6 | 128.9 ± 2.3 | 112.4 ± 2 | 103.1 ± 1.9 | 98.9 ± 1.9 | 104 ± 2.1 | 112.6 ± 2.4 | 129.5 ± 2.9 | 156.5 ± 3.9 | 212.7 ± 6
323.15 K | 108.1 ± 1.8 | 99.1 ± 1.6 | 86.6 ± 1.4 | 79.4 ± 1.3 | 76 ± 1.3 | 79.4 ± 1.5 | 85.4 ± 1.7 | 97.2 ± 2.1 | 116.1 ± 2.7 | 155.3 ± 4
328.15 K | 84.5 ± 1.3 | 77.6 ± 1.1 | 67.8 ± 1 | 62.2 ± 1 | 59.4 ± 1 | 61.6 ± 1.1 | 65.9 ± 1.3 | 74.2 ± 1.5 | 87.7 ± 1.9 | 115.3 ± 2.7
333.15 K | 67.08 ± 0.92 | 61.68 ± 0.87 | 53.98 ± 0.81 | 49.43 ± 0.8 | 47.16 ± 0.8 | 48.5 ± 0.88 | 51.57 ± 0.96 | 57.6 ± 1.1 | 67.3 ± 1.4 | 87 ± 1.9
338.15 K | 54.05 ± 0.71 | 49.76 ± 0.7 | 43.58 ± 0.66 | 39.88 ± 0.64 | 37.96 ± 0.64 | 38.75 ± 0.7 | 40.98 ± 0.77 | 45.33 ± 0.89 | 52.4 ± 1.1 | 66.7 ± 1.4
343.15 K | 44.14 ± 0.6 | 40.69 ± 0.57 | 35.65 ± 0.54 | 32.6 ± 0.53 | 30.96 ± 0.52 | 31.37 ± 0.57 | 33 ± 0.62 | 36.18 ± 0.71 | 41.36 ± 0.85 | 51.9 ± 1.1
348.15 K | 36.5 ± 0.49 | 33.69 ± 0.47 | 29.51 ± 0.45 | 26.96 ± 0.43 | 25.56 ± 0.43 | 25.71 ± 0.46 | 26.9 ± 0.51 | 29.24 ± 0.57 | 33.08 ± 0.68 | 40.87 ± 0.88
353.15 K | 30.53 ± 0.41 | 28.22 ± 0.4 | 24.71 ± 0.37 | 22.56 ± 0.36 | 21.33 ± 0.36 | 21.31 ± 0.39 | 22.18 ± 0.42 | 23.9 ± 0.47 | 26.78 ± 0.55 | 32.6 ± 0.7
358.15 K | 25.8 ± 0.35 | 23.88 ± 0.34 | 20.91 ± 0.32 | 19.07 ± 0.31 | 17.99 ± 0.3 | 17.86 ± 0.32 | 18.48 ± 0.35 | 19.75 ± 0.39 | 21.91 ± 0.45 | 26.29 ± 0.56
363.15 K | 22.02 ± 0.3 | 20.4 ± 0.29 | 17.86 ± 0.27 | 16.27 ± 0.26 | 15.31 ± 0.26 | 15.1 ± 0.27 | 15.55 ± 0.29 | 16.48 ± 0.32 | 18.11 ± 0.37 | 21.43 ± 0.46
368.15 K | 18.97 ± 0.26 | 17.58 ± 0.25 | 15.4 ± 0.23 | 14.01 ± 0.23 | 13.15 ± 0.22 | 12.89 ± 0.23 | 13.21 ± 0.25 | 13.89 ± 0.27 | 15.12 ± 0.31 | 17.63 ± 0.38
373.15 K | 16.47 ± 0.22 | 15.28 ± 0.21 | 13.38 ± 0.2 | 12.15 ± 0.2 | 11.38 ± 0.19 | 11.09 ± 0.2 | 11.3 ± 0.21 | 11.8 ± 0.23 | 12.72 ± 0.26 | 14.64 ± 0.31

CS(C)=O + CC[NH+](CC)CC.O=P([O-])(O)O
101 kPa, x1 = 1
Conditions | viscosity [mPa·s]
298.15 K | 1.99 ± 0.04
303.15 K | 1.8 ± 0.04
308.15 K | 1.65 ± 0.03
